Laboratory results published in patent US20230028441A1, “NOVEL HETEROARYL-TRIAZOLE COMPOUNDS AS PESTICIDES” (Bayer Aktiengesellschaft, priority 2019, published 2023).

How the values were obtained:
Type in all cases: in vivo
[1] = test system: adult cat fleas (Ctenocephalides felis); experiment: Ctenocephalides felis in-vitro contact test, adult cat flea; conditions: 5 μg/cm^2 (=500 g/ha), after 48 hours, read-out: efficacy (fleas dead or moribund)
Outline: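 Acetone solutions were coated on glass tube walls, 900 ppm giving 5 μg/cm^2. After drying, 5-10 adult fleas per tube were held 48 h at room temperature. Fleas unable to climb away from a 45-50 °C heating plate within 5 min were scored dead or moribund, as % efficacy.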

[2] = test system: caterpillars of the fall army worm (Spodoptera frugiperda); experiment: Spodoptera frugiperda spray test (cotton leaves); conditions: 168 h
Protocol: Solvent: 14 parts by weight of dimethylformamide
Emulsifier: alkylaryl polyglycol ether
To produce a suitable preparation of active compound, 1 part by weight of active compound is mixed with the stated amount of solvent and is diluted with water, containing an emulsifier concentration of 1000 ppm, to the desired concentration. Further test concentrations are prepared by dilution with emulsifier containing water. Ammonium salt and/or penetration enhancer in a dosage of 1000 ppm are added to the desired concentration if necessary.
Cotton leaves (Gossypium hirsutum) are treated by being sprayed with the preparation of the active compound of the desired concentration and are infested with caterpillars of the fall army worm (Spodoptera frugiperda).
After 7 days mortality in % is determined. 100% means all the caterpillars have been killed and 0% means none of the caterpillars have been killed.

[3] = test system: fall armyworm larvae (Spodoptera frugiperda); experiment: Spodoptera frugiperda spray test (maize leaf sections); conditions: 168 h
Outline: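 Maize leaf sections were sprayed with compound formulated in acetone/DMF and diluted in water containing 1000 ppm emulsifier. Once dry, sections were infested with fall armyworm larvae. Mortality (%) was scored after 7 days.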

[4] = test system: brown planthopper (Nilaparvata lugens); experiment: Nilaparvata lugens spray test; conditions: in Oryza sativa, 96 h
Outline: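 Rice plants (Oryza sativa) sprayed with compound in acetone/DMF diluted in water containing 1000 ppm alkylarylpolyglycol ether emulsifier, then infested with planthoppers. Mortality % scored after 4 days (100% = all killed, 0% = none killed).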

[5] = test system: adult brown dog ticks (Rhipicephalus sanguineus); experiment: Rhipicephalus sanguineus in-vitro contact test with adult brown dog ticks; conditions: after 48 hours, read-out: efficacy (ticks dead or moribund); for pest or weed control at 1 µg/cm2, 100 g/ha: 1 μg/cm^2 (=100 g/ha); for pest or weed control at 5 µg/cm2, 500 g/ha: 5 μg/cm^2 (=500 g/ha)
Outline: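 Compound in acetone coated onto glass tube inner walls at 900 ppm, giving 5 μg/cm^2. Adult ticks (5-10 per tube) held at room temperature for 48 h, then placed on a 45-50° C. heating plate for up to 5 min. Ticks unable to climb away counted dead or moribund; efficacy given as % dead/moribund.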

[6] = test system: cattle tick larvae (Rhipicephalus microplus), strain Parkhurst, resistant against synthetic pyrethroids; experiment: Rhipicephalus (Boophilus) microplus in-vitro contact test, larval cattle tick; conditions: 5 μg/cm^2 (=500 g/ha), after 48 hours, read-out: efficacy (larvae dead or moribund)
Outline: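 Acetone solutions of compound were coated on glass tube walls (900 ppm giving 5 μg/cm^2) and dried. 20–50 pyrethroid-resistant Parkhurst larvae were held per tube at 27° C and 85% relative humidity; after 48 h negative geotaxis scored efficacy as percent larvae dead or moribund.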

[7] = test system: larvae of the southern green stink bug (Nezara viridula); experiment: Nezara viridula spray test; conditions: in Hordeum vulgare, 96 h
Outline: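 Barley plants infested with Nezara viridula larvae were sprayed with compound in acetone/dimethylformamide, diluted in water containing 1000 ppm alkylarylpolyglycol ether emulsifier. Mortality (%) was scored after 4 days; 100% means all stink bugs killed.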

[8] = test system: larvae of the banded cucumber beetle (Diabrotica balteata); experiment: Diabrotica balteata spray test; conditions: 168 h, 100 g/ha (=32 μg/well), after 7 days, wheat seeds, read-out: efficacy (seedlings grown up)
Outline: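 Germinated wheat seedlings (5 per well, agar plates) sprayed with compound in acetone/DMF diluted in water with 1000 ppm emulsifier, then infested with 10-20 larvae per unit. Efficacy scored after 7 days as % seedling growth relative to untreated, uninfested control (100% = normal growth, 0% = none).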

[9] = test system: green peach aphid (Myzus persicae); experiment: Myzus persicae spray test; conditions: foliar, 120 h, 100 g/ha, after 5 days, Chinese cabbage leaf disks
Outline: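 Chinese cabbage leaf disks carrying all instars of Myzus persicae were sprayed with compound. The formulation was acetone/dimethylformamide diluted in water with 1000 ppm alkylarylpolyglycol ether emulsifier. Percent mortality was scored after 5 days, with 100% meaning all aphids killed.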

[10] = test system: southern root-knot nematode (Meloidogyne incognita); experiment: Meloidogyne incognita test; conditions: 336 h, after 14 days, read-out: nematicidal activity (gall formation)
Protocol: Solvent: 125.0 parts by weight of acetone
To produce a suitable preparation of active compound, 1 part by weight of active compound is mixed with the stated amount of solvent, and the concentrate is diluted with water to the desired concentration.
Vessels are filled with sand, a solution of the active ingredient, a suspension containing eggs and larvae of the southern root-knot nematode (Meloidogyne incognita) and salad seeds. The salad seeds germinate and the seedlings grow. Galls develop in the roots.
After 14 days the nematicidal activity is determined on the basis of the percentage of gall formation. 100% means no galls were found and 0% means the number of galls found on the roots of the treated plants was equal to that in untreated control plants.

[11] = test system: green peach aphid (Myzus persicae); experiment: Myzus persicae oral test; conditions: 120 h
Outline: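 Compound was dissolved at 1 part by weight in 100 parts acetone, then diluted with water to test concentration and combined with IPL41 insect medium (33%+15% sugar). A mixed aphid population fed on this through a parafilm seal, and mortality (%) was scored after 5 days.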

[12] = test system: adult engorged female ticks (Rhipicephalus microplus); experiment: Rhipicephalus (Boophilus) microplus injection test; conditions: 168 h, 4 μg/animal, egg deposition after 7 days, read-out: efficacy (infertile eggs)
Outline: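 Compound was dissolved in DMSO at 10 mg per 0.5 mL and diluted with DMSO to the test concentration. Five engorged adult females received a 1 μL abdominal injection and were kept in a climate chamber. After 7 days, fertile egg deposition was scored, with unclear eggs held until hatching at about 42 days; 100% efficacy means all eggs were infertile.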

[13] = test system: adult unfed cat fleas (Ctenocephalides felis); experiment: Ctenocephalides felis oral test; conditions: 48 h, 100 ppm in cattle blood, after 2 days
Outline: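 About 20 adult unfed Ctenocephalides felis fed through parafilm on cattle blood dosed with compound (DMSO stock diluted in blood), blood chamber at 37°C, fleas at room temperature. Mortality (%) scored after 2 days; 100% means all fleas killed.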

Structure (SMILES) | pest or weed control at 5 µg/cm2 [1] | mortality at 20 ppm [2] | mortality at 100 g/ha [3] | mortality at 500 g/ha [4] | pest or weed control at 1 µg/cm2, 100 g/ha [5] | pest or weed control at 5 µg/cm2, 500 g/ha [5] | pest or weed control at 5 µg/cm2 [6] | mortality at 500 g/ha [7] | pest or weed control at 32 µg/disc, 100 g/ha [8] | mortality at 100 g/ha [9] | pest or weed control at 20 ppm [10] | mortality at 4 ppm [11] | mortality at 100 g/ha [7] | pest or weed control at 0.004 mg [12] | mortality at 100 ppm [13]
C[C@H](NC(=O)c1cc(Br)cc(OC(F)(F)F)c1)c1nc(N(C)C)nn1-c1ncccn1 [I-139] | 100% | 100% | 100% | 100% | 80% | 100% | 100% | 100% | 100% | – | – | – | – | – | –
C[C@H](NC(=O)c1cc(Cl)cc(C(C)(C)C#N)c1)c1nc(N)nn1-c1ccc(C#N)cn1 [I-155] | 100% | 100% | 100% | 100% | 100% | 100% | 100% | 100% | 100% | 100% | – | – | – | – | –
C[C@H](NC(=O)c1cc(Br)cc(OC(F)(F)F)c1)c1nc(N2CCOCC2)nn1-c1ncccn1 [I-147] | – | – | – | – | – | – | 100% | – | 100% | – | 100% | – | – | – | –
CNc1nc(C(C)NC(=O)c2cc(Br)cc(C(F)(F)F)c2)n(-c2ncccn2)n1 (stereo not shown) [I-092] | 100% | 80% | 100% | – | 100% | 100% | 100% | – | 100% | 90% | – | 100% | 100% | 100% | 100%
CON(C)c1nc([C@H](C)NC(=O)c2cc(OC(F)(F)F)cc(C3CC3)c2)n(-c2ncccn2)n1 [I-152] | – | 100% | 100% | 100% | – | – | – | 100% | 100% | 90% | – | – | – | – | –
CC(NC(=O)c1cc(OC(F)(F)F)cc(C2CC2)c1)c1nc(N)nn1-c1ncccn1 (stereo not shown) [I-097] | 90% | 100% | 100% | – | – | – | 90% | – | 100% | 100% | – | 100% | 100% | 100% | 100%
CNc1nc(C(C)NC(=O)c2cc(Br)cc(OC(F)(F)F)c2)n(-c2ncccn2)n1 (stereo not shown) [I-103] | 100% | 100% | 100% | – | 100% | 100% | 100% | – | 100% | 90% | – | 100% | 100% | 100% | 100%
CNc1nc(C(C)NC(=O)c2cc(OC(F)(F)F)cc(C3CC3)c2)n(-c2ncccn2)n1 (stereo not shown) [I-101] | 100% | 100% | 100% | – | 100% | 100% | 100% | – | 100% | 90% | – | 100% | – | 100% | 100%
CC(NC(=O)c1cc(C(F)(F)F)cc(C(F)(F)F)c1)c1nc(N)nn1-c1ccc(C#N)cn1 (stereo not shown) [I-104] | 100% | 100% | 100% | – | 100% | 100% | 100% | – | 100% | – | – | 100% | – | 100% | 100%
CNc1nc([C@H](C)NC(=O)c2cc(Cl)cc(OC(F)(F)F)c2)n(-c2ncccn2)n1 [I-129] | 100% | 100% | 100% | 90% | 80% | 80% | 100% | 100% | 100% | 90% | – | – | – | – | –
C[C@H](NC(=O)c1cc(Br)cc(Br)c1)c1nc(N(C)C)nn1-c1ncccn1 [I-140] | 100% | 100% | 100% | 90% | 100% | 100% | 100% | 90% | 100% | 90% | – | – | – | – | –
